Series [1] has as its target T1, N-formyl peptide receptor 2 (Homo sapiens, UniProt P25090).
T1 sequence (P25090 whole entry): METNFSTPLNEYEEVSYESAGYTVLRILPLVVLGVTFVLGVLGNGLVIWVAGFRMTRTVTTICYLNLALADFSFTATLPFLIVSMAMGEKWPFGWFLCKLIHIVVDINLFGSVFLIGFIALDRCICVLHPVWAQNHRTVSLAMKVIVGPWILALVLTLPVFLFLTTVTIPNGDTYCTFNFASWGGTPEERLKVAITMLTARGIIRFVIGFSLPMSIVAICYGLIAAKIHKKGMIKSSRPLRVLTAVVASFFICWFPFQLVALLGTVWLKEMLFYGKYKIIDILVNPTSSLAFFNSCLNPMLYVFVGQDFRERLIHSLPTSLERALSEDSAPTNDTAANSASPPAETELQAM
In words: Activity at human FPRL1-mediated calcium mobilization in CHO cells. The series is classed as functional, cell-based. Background: Calcium assays in cells follow changes in intracellular calcium, usually with a dye or a luminescent sensor.

Series [2] is filed under the species Mus musculus. In words: Reduction of swelling in mouse ear at 25 ug. The series is classed as functional.
Series [3] concerns PMNL. In words: Inhibition of IL8-induced PMN migration. The series is classed as functional, cell-based. The following applies: Homo sapiens.
For series [4], the species on record is Mus musculus. Kind of series: Reduction of swelling in mouse ear at 0.25 ug. On the set-up: scale not given: the % may be the effect or the level left. In kind it is functional.
Series [5] concerns PMNL. In words: Inhibition of fMLP-induced PMN migration. The series is classed as functional, cell-based. The following applies: Homo sapiens.
The species named for series [6] is Mus musculus. In words: Reduction of swelling in mouse ear at 2.5 ug. Also on record: scale not given: the % may be the effect or the level left. The series is classed as functional.
The test system of series [7] is Mus musculus. Kind of series: Reduction of edema in mouse ear inflammation model at 5 mg/kg, po. On the set-up: scale not given: the % may be the effect or the level left. The series is classed as functional.
Series [8] in a line: Half life in rat at 0.5 mg/kg, iv. In kind it is ADME, organism-based. On the set-up: dose 0.5 mg/kg, route intravenous. The following applies: in vivo.
Series [9] concerns Mus musculus. In words: Reduction of edema in mouse ear inflammation model at 16.6 mg/kg, po. In kind it is functional. Also on record: scale not given: the % may be the effect or the level left.
Series [10] can be described thus: Clearance in rat at 0.5 mg/kg, iv. In kind it is ADME, organism-based. On the set-up: dose 0.5 mg/kg, route intravenous. The following applies: in vivo.
Series [11] deals with Mus musculus. Kind of series: Unbound ligand concentration in mouse plasma at 16.6 mg/kg. The series is classed as ADME, organism-based. Also on record: dose 16.6 mg/kg. The following applies: in vivo.
Series [12] relates to Mus musculus. In words: Unbound ligand concentration in mouse plasma at 50 mg/kg. In kind it is ADME, organism-based. The following applies: in vivo. Also on record: dose 50 mg/kg.
Series [13] can be described thus: Protein binding in mouse plasma. The conditions noted are these: read-out: PPB (converted). The series is classed as ADME, organism-based.
Series [14] can be described thus: Bioavailability in rat at 2 mg/kg, po. In kind it is ADME, organism-based. The conditions noted are these: in vivo.
The test system of series [15] is Mus musculus. In words: Unbound ligand concentration in mouse plasma at 5 mg/kg. The conditions noted are these: in vivo. Also on record: dose 5 mg/kg. In kind it is ADME, organism-based.
Series [16] has as its system Mus musculus. In words: Reduction of edema in mouse ear inflammation model at 50 mg/kg, po. The series is classed as functional. On the set-up: scale not given: the % may be the effect or the level left.
In series [17] the test system is Mus musculus. In words: Reduction of edema in mouse ear inflammation model at 1 mg/kg, po. The series is classed as functional. Also on record: scale not given: the % may be the effect or the level left.
Series [18] is filed under the species Mus musculus. Kind of series: Reduction of swelling in mouse ear at 30 ug. In kind it is functional. On the set-up: scale not given: the % may be the effect or the level left.

SMILES strings stand for the structures. Active and inactive are the calls of the source. The calls are words filed in the database; no cut-off is given here.

As to `CC(C)c1c(NC(=O)Nc2ccc(Cl)cc2)c(=O)n(-c2cnc3ccccc3c2)n1C`, the EC50 (usually the concentration needed to bring the measured effect to its halfway point) in series [1] turned out to be 80 nM.
In the case of `CCCCC(Oc1ccccc1)[C@@H](O)/C=C/C=C\C=C\C=C\[C@@H](O)[C@@H](O)CCCC(=O)O` (stereo not given in full), in the series filed under Mus musculus [2], the outcome was Active.
Consider `Cc1ccc(NC(=O)Nc2c(C(C)(C)C)n(C)n(-c3ccccc3)c2=O)cc1F`, for which the EC50 in series [1] is 83 nM.
Same read-out and setting: under `Cc1ccc(NC(=O)Nc2c(C)n(C)n(-c3ccccc3)c2=O)cc1` stands 1260 nM; under `CSc1ccc(NC(=O)Nc2c(C(C)C)n(C)n(-c3cncnc3)c2=O)cc1`, 43 nM.
Same read-out and setting: for `Cc1c(NC(=O)Nc2ccccc2Cl)c(=O)n(-c2ccccc2)n1C` the value was more than 10000 nM; for `CC(C)c1c(NC(=O)Nc2ccc(Cl)cc2)c(=O)n(-c2cncnc2)n1C`, 250 nM; for `Cc1c(NC(=O)Nc2ccc(Cl)cc2)c(=O)n(-c2ccccc2)n1C`, 490 nM.
In the case of `Cc1ccc(NC(=O)Nc2c(C(C)C)n(C)n(-c3ccccc3)c2=O)cc1F`, the half-maximal effective concentration (EC50) in series [1] was found to be 81 nM.
As for `CC(C)c1c(NC(=O)Nc2ccc(C(F)(F)F)cc2)c(=O)n(C2=NCCS2)n1C`, the EC50 in series [1] amounted to 1470 nM.
The same measure, in the same setting: for `CSc1ccc(NC(=O)Nc2c(C)n(C)n(-c3ccccc3)c2=O)cc1` the value was 170 nM.
Take `CC(C)c1c(NC(=O)Nc2ccccc2Cl)c(=O)n(-c2ccccc2)n1C`: the EC50 in series [1] was more than 10000 nM.
In the case of `Cc1c(NC(=O)Nc2ccc(C#N)cc2)c(=O)n(-c2ccccc2)n1C`, the EC50 in series [1] was 3700 nM.
With `CSc1ccc(NC(=O)Nc2c(C(C)C)n(C)n(-c3cnc4ccccc4c3)c2=O)cc1`, the EC50 in series [1] came to 30 nM.
As to `CCc1c(NC(=O)Nc2ccc(Cl)cc2)c(=O)n(-c2ccccc2)n1C`, the EC50 in series [1] was 140 nM.
`Cc1c(NC(=O)Nc2ccc(F)cc2)c(=O)n(-c2ccccc2)n1C`: the EC50 in [1] amounted to 4850 nM.
Turning to `Cc1c(NC(=O)Nc2ccc(Br)cc2)c(=O)n(-c2ccccc2)n1C`, in series [1], the EC50 amounted to 90 nM.
As for `Cc1ccc(NC(=O)Nc2c(C)n(C)n(-c3ccccc3)c2=O)cc1F`, in series [1], the EC50 turned out to be 980 nM.
On the same count and under the same terms, under `Cc1c(NC(=O)Nc2cccc(Cl)c2)c(=O)n(-c2ccccc2)n1C` stands more than 10000 nM.
The same measure, in the same setting: for `CC(C)c1c(NC(=O)Nc2ccc(Cl)cc2)c(=O)n(C2=NCCS2)n1C` the value was 540 nM; for `CC(C)c1c(NC(=O)Nc2ccc(C(F)(F)F)cc2)c(=O)n(-c2cnc3ccccc3c2)n1C`, 44 nM; for `Cc1c(NC(=O)Nc2ccc(C(C)C)cc2)c(=O)n(-c2ccccc2)n1C`, 12300 nM.
On the same count and under the same terms, under `CCc1c(NC(=O)Nc2ccc(C)c(F)c2)c(=O)n(-c2ccccc2)n1C` stands 310 nM.
For the compound `CCn1c(C(C)C)c(NC(=O)Nc2ccc(C)c(F)c2)c(=O)n1-c1ccccc1`, in [1], the EC50 stood at 100 nM.
Take `Cc1c(NC(=O)Nc2ccc(I)cc2)c(=O)n(-c2ccccc2)n1C`: in [1], the EC50 was 30 nM. The IC50 in the series on PMNL [3] and with PMNL [5] was 2000 nM each time. In addition, the figures for the Activity in the series filed under Mus musculus [2], in the series listed under Mus musculus [4] and in the series listed under Mus musculus [6] were 52%, 31% and 35%, respectively.
For the compound `CSc1ccc(NC(=O)Nc2c(C(C)C)n(C)n(C3=NCCS3)c2=O)cc1`, the EC50 in series [1] is 5130 nM.
Still for that read-out and setting: under `COc1ccc(NC(=O)Nc2c(C)n(C)n(-c3ccccc3)c2=O)cc1` stands 2730 nM; under `CC(C)c1c(NC(=O)Nc2ccc(C(F)(F)F)cc2)c(=O)n(-c2cncnc2)n1C`, 150 nM; under `Cc1c(NC(=O)Nc2nccs2)c(=O)n(-c2ccccc2)n1C`, more than 10000 nM.
Still for that read-out and setting: under `CCc1ccc(NC(=O)Nc2c(C)n(C)n(-c3ccccc3)c2=O)cc1` stands 770 nM; under `Cc1c(NC(=O)Nc2ccc(C(F)(F)F)cc2)c(=O)n(-c2ccccc2)n1C`, 100 nM.
Regarding `CC1C(N(C)C(=O)N(C)c2ccc(I)cc2)C(=O)N(c2ccccc2)N1C` (stereo not given), the EC50 in series [1] is more than 10000 nM. The IC50 with PMNL [3] and in the series on PMNL [5] was more than 10000 nM in each case. In addition, the Activity in the series filed under Mus musculus [2] was 8%; in the series filed under Mus musculus [4], 2%; in the series filed under Mus musculus [6], 8%.
Regarding `Cc1c(NC(=O)Nc2ccc3c(c2)OCO3)c(=O)n(-c2ccccc2)n1C`, in [1], the EC50 worked out at 5880 nM.
On to `Cn1c(C(C)(C)C)c(NC(=O)Nc2ccc(Cl)cc2)c(=O)n1-c1ccccc1`, for which, in series [1], the EC50 was 23 nM.
Take `Cc1cc(NC(=O)Nc2c(C)n(C)n(-c3ccccc3)c2=O)ccc1F`: the EC50 in series [1] was more than 10000 nM.
Turning to `CC(C)c1c(NC(=O)Nc2ccc(Cl)cc2)c(=O)n(-c2ccccc2)n1C`, the Activity with Mus musculus [7] is recorded as 11%; in the series on Mus musculus [9] it was 39%; with Mus musculus [16], 58%. In addition, the half-life (usually how long it takes for the measured level to halve) in series [8] is 2.78 h. The clearance (usually a measure of how efficiently the substance is removed, as volume per time) in series [10] is 2.1 mL/min/kg. Also, the figures for the unbound plasma concentration in the series with Mus musculus [11], in the series on Mus musculus [12] and with Mus musculus [15] were 17 nM, 185 nM and 14 nM, respectively. The IC50 (usually the concentration at which inhibition is half-maximal) turned out to be 240 nM with PMNL [3] and 640 nM with PMNL [5]. Also, in series [13], the fraction unbound was 0.021. Also, in [14], the bioavailability – broadly, dose-corrected exposure relative to a reference, in per cent – turned out to be 91%.
`C[C@@H]1C[C@H]2[C@@H]3CCC4=CC(=O)C=C[C@]4(C)[C@@]3(F)[C@@H](O)C[C@]2(C)[C@@]1(O)C(=O)CO` [DEXAMETHASONE]: the Activity is listed as 54% with Mus musculus [17] and 71% in the series listed under Mus musculus [18].
In the case of `Cc1c(NC(=O)Nc2ccccc2)c(=O)n(-c2ccccc2)n1C`, the EC50 in [1] is more than 10000 nM.
